From article PMC9797592, “TJ-M2010-5, a novel CNS drug candidate, attenuates acute cerebral ischemia-reperfusion injury through the MyD88/NF-κB and ERK pathway” (Frontiers in Pharmacology, 2022)

How the values were obtained:
CIRI mice = test: MCAO cerebral ischemia-reperfusion injury model: neurological deficit score and TTC infarct volume; type: in vivo, C57BL/6 mice; details: edaravone 3 mg/kg i.v. at 1 h of ischemia; 24 h reperfusion; TTC; I/R group 34.24%
Protocol: Male C57BL/6 mice (Beijing Vital River Laboratory Animal Technology Co. Ltd., Beijing, China) weighing 22–28 g and aged 8–10 weeks were used. All animal experiments were approved by the Institutional Animal Care and Use Committee of Tongji Hospital (Wuhan, China). All procedures were performed in accordance with specific pathogen-free standards. Mice were randomly divided into the following seven groups: sham, I/R, vehicle (I/R + saline), I/R + TJ-5 (5 mg/kg), I/R + TJ-5 (10 mg/kg), I/R + TJ-5 (15 mg/kg), and I/R + edaravone (3 mg/kg).
The mice were anesthetized with 1% pentobarbital sodium solution via intraperitoneal injection, and the body temperature was maintained at 37.0°C–37.5°C. The middle cerebral artery occlusion (MCAO) model was established according to the Longa method, as described previously ([Longa et al., 1989]). In brief, the right carotid artery was carefully separated and exposed. A silicon-coated embolic suture (Doccol, United States) was inserted slowly from the external carotid artery (ECA) into the internal carotid artery (ICA) until it reached the middle cerebral artery (MCA). After 1 h of ischemia, the embolic suture was withdrawn. The surgical procedure in the sham group was the same as that in the I/R group, but the MCA was not obstructed.
After 24 h of reperfusion, each group of mice was scored blindly, according to the scoring system of the Longa method ([Longa et al., 1989]). The score was 0 for no obvious neurological deficit, one for inability to fully extend the left forelimb, two for turning to the left, three for leaning to the left while walking, and four for the inability to walk spontaneously and impaired consciousness.
The mice were sacrificed 24 h after I/R. Mouse brains were harvested for the measurement of cerebral infarct volume. The brains were frozen at −80°C for 5 min and cut into five 2-mm thick slices. The slices were then placed in a small dish, 2% 2,3,5-triphenyltetrazolium chloride (TTC) solution (Sigma, United States) was added, and 4% paraformaldehyde was used for fixation. Images were captured using a digital camera. ImageJ software was used to measure the volume of the brain infarction.

[1] = test system: LPS-stimulated BV-2 cells; test: LPS-stimulated BV-2 cell model: morphology and TNF-α/IL-6 ELISA; type: cell-based; details: LPS-stimulated BV-2 cells; pretreatment 2 h, LPS 24 h; ELISA
Protocol: (§1) BV-2 microglial and SH-SY5Y cells were cultured as previously described ([Zhao et al., 2020]). A lipopolysaccharide (LPS)-stimulated BV-2 cell model was established to mimic severe neuroinflammation induced by multiple inflammatory mediators after reperfusion ([Li et al., 2021]). BV-2 cells were pretreated with different concentrations of TJ-5 for 2 h before LPS (1 μg/ml) stimulation (#L2880, Sigma, United States). Twenty-4 hours later, BV-2 cells and the culture supernatants were harvested for subsequent experiments. In addition, ST2825, a recognized MyD88 inhibitor, was used as positive control group.
Enzyme-linked immunosorbent assay (ELISA) kits were used to detect the levels of TNF-α, IL-1β, and IL-6 in the brain. Brain tissue was homogenized in 1 ml of phosphate-buffered saline using a tissue homogenizer. Then, the homogenates were centrifuged at 14,000 g for 10 min at 4 °C. The supernatant was immediately transferred for measurement following the manufacturer’s instructions. BV-2 cells were incubated with different treatments and the supernatants were collected and measured.

NF-κB p65 = NF-κB p65 nuclear translocation in LPS-stimulated BV-2 cells, immunofluorescence; type: cell-based; details: 12 h after LPS stimulation
Protocol: as §1, with “Twenty-4 hours later, BV-2 cells and the culture supernatants were harvested for subsequent experiments.” left out
For BV-2 cells immunofluorescence staining, the cells were fixed with 4% paraformaldehyde for 10 min and permeabilized with 0.5% Triton X-100 for 10 min. After blocking with goat serum, the cells were sequentially incubated with the primary antibody, secondary antibody, and Hoechst in sequence. Images were captured using a confocal microscope. The fluorescence intensity was analyzed using ImageJ software.

| Structure (SMILES) | percentage of infarct volume (CIRI mice) [%] | levels of TNF-α and IL-6 in supernatants [1] | LPS-induced NF-κB p65 nuclear translocation (NF-κB p65) |
| --- | --- | --- | --- |
| CC1=NN(c2ccccc2)C(=O)C1 [edaravone, reference compound] | 18.59 |  |  |
| NC(=O)[C@H]1CCS[C@@H]2C[C@]3(CCCN3C(=O)Cc3ccc(NC(=O)COc4ccc(Cl)cc4Cl)cc3)C(=O)N12 [ST2825, reference compound] |  | same anti-inflammatory effect | same |
